Source: ChEMBL document CHEMBL5543125, “Discovery of 2,3-Dihydro[1,4]dioxino[2,3-g]benzofuran Derivatives as Protease Activated Receptor 4 (PAR4) Antagonists with Potent Antiplatelet Aggregation Activity and Low Bleeding Tendency” (J Med Chem, 2024)
The source made the active and inactive calls. The calls are words filed in the database; no cut-off is given here.

Experiments:
[1] = target: T1, Platelet glycoprotein VI (Mus musculus) (UniProt P0C191); experiment: Antagonist activity at GPVI in ICR mouse plasma assessed as inhibition of collagen induced platelet aggregation upto 8 uM preincubated for 5 mins followed by aggregation inducer addition and measured after 5 mins by light transmission aggregometry; assay type: cell-free; conditions: time 10.0 min
T1 sequence (whole entry): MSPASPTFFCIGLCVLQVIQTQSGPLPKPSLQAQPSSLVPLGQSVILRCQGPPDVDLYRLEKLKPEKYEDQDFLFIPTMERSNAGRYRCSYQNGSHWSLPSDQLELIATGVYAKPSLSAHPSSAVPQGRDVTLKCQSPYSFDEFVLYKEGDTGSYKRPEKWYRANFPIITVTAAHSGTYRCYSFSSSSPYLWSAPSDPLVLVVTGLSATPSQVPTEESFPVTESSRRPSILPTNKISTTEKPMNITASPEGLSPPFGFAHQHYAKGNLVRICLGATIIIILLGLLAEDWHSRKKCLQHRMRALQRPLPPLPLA

[2] = target: T2, Thromboxane A2 receptor (Mus musculus) (UniProt P30987); experiment: Antagonist activity at thromboxane A2 receptor in ICR mouse plasma assessed as inhibition of U46619 induced platelet aggregation upto 1 uM preincubated for 5 mins followed by aggregation inducer addition and measured after 5 mins by light transmission aggregometry; assay type: functional, cell-free; conditions: time 10.0 min
T2 sequence (whole entry): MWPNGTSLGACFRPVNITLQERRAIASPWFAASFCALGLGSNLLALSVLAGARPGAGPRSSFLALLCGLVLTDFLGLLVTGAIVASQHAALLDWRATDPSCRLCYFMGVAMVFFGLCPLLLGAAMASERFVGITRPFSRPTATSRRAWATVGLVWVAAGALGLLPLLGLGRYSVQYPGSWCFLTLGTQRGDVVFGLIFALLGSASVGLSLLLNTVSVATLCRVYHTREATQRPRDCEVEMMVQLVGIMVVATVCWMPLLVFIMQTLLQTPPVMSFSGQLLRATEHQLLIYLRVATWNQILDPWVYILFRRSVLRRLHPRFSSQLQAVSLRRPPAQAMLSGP

[3] = tested on: Plasma; experiment: Ex vivo antiplatelet aggregation activity in ICR mouse […] assessed as inhibition of PAR4-activated peptide AYPGFK-NH2 induced platelet aggregation at 6 to 12 mg/kg, po measured after 2 hrs by light transmission aggregometry relative to control; assay type: functional; conditions: dose 6-12 mg/kg
[4] = Terminal elimination half life in ICR mouse at 12 mg/kg, po measured upto 24 hrs by LC-MS/MS analysis; assay type: ADME, organism-based; conditions: in vivo, read-out: beta t1/2 (converted)
[5] = tested on: Platelet; experiment: Inhibition of platelet aggregation in human platelet rich plasma at 20 uM preincubated for 5 mins followed by aggregation inducer addition and measured after 5 mins by light transmission aggregometry relative to control; assay type: functional; conditions: 10 min
[6] = target: T2, Thromboxane A2 receptor (Mus musculus); experiment: Antagonist activity at thromboxane A2 receptor in ICR mouse plasma assessed as inhibition of U46619 induced platelet aggregation upto 8 uM preincubated for 5 mins followed by aggregation inducer addition and measured after 5 mins by light transmission aggregometry; assay type: functional, cell-free; conditions: time 10.0 min
[7] = tested on: Platelet; experiment: Antagonist activity at P2Y1/P2Y12 in ICR mouse plasma assessed as inhibition of ADP induced platelet aggregation upto 1 uM preincubated for 5 mins followed by aggregation inducer addition and measured after 5 mins by light transmission aggregometry; assay type: cell-free; conditions: time 10.0 min
[8] = Tmax in ICR mouse at 12 mg/kg, po measured upto 24 hrs by LC-MS/MS analysis; assay type: ADME, organism-based; conditions: in vivo
[9] = target: T3, Proteinase-activated receptor 4 (Mus musculus) (UniProt O88634); experiment: Antagonist activity at PAR4 in ICR mouse plasma assessed as inhibition of PAR4-activated peptide AYPGPK-NH2 induced platelet aggregation at 100 to 1000 nM preincubated for 5 mins followed by aggregation inducer addition and measured after 5 mins by light transmission aggregometry; assay type: cell-free; conditions: filed as antagonist, dose 100-1000 nM, time 10.0 min
T3 sequence (whole entry): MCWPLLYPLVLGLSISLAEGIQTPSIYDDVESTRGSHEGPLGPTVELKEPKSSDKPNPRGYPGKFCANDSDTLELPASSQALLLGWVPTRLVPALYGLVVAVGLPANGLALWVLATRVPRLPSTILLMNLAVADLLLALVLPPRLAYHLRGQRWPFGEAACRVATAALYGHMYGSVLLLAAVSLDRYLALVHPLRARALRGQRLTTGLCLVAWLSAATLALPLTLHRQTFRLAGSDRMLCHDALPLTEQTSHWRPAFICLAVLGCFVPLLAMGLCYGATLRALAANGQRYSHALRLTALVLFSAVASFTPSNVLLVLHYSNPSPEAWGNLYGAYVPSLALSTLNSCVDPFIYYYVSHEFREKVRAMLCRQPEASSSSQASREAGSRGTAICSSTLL

[10] = Clearance in ICR mouse at 2 mg/kg, iv measured upto 24 hrs by LC-MS/MS analysis; assay type: ADME, organism-based; conditions: in vivo
[11] = AUC (0 to t) in ICR mouse at 12 mg/kg, po measured upto 24 hrs by LC-MS/MS analysis; assay type: ADME, organism-based; conditions: in vivo
[12] = Oral bioavailability in ICR mouse at 12 mg/kg measured upto 24 hrs by LC-MS/MS analysis; assay type: ADME, organism-based; conditions: in vivo
[13] = Cmax in ICR mouse at 12 mg/kg, po measured upto 24 hrs by LC-MS/MS analysis; assay type: ADME, organism-based; conditions: in vivo
[14] = Terminal elimination half life in ICR mouse at 2 mg/kg, iv measured upto 24 hrs by LC-MS/MS analysis; assay type: ADME, organism-based; conditions: in vivo, read-out: beta t1/2 (converted)
[15] = AUC (0 to t) in ICR mouse at 2 mg/kg, iv measured upto 24 hrs by LC-MS/MS analysis; assay type: ADME, organism-based; conditions: in vivo
[16] = target: Voltage-gated inwardly rectifying potassium channel KCNH2 (Homo sapiens, UniProt Q12809); experiment: Inhibition of hERG expressed in HEK293 cells by whole cell patch clamp assay; assay type: toxicity, cell-based
[17] = tested on: Plasma; experiment: Ex vivo antiplatelet aggregation activity in ICR mouse […] assessed as inhibition of ADP induced platelet aggregation at 6 to 12 mg/kg, po measured after 2 hrs by light transmission aggregometry relative to control; assay type: functional; conditions: dose 6-12 mg/kg
[18] = tested on: Platelet; experiment: Antagonist activity at P2Y1/P2Y12 in ICR mouse plasma assessed as inhibition of ADP induced platelet aggregation upto 8 uM preincubated for 5 mins followed by aggregation inducer addition and measured after 5 mins by light transmission aggregometry; assay type: cell-free; conditions: time 10.0 min
[19] = target: T1, Platelet glycoprotein VI (Mus musculus); experiment: Antagonist activity at GPVI in ICR mouse plasma assessed as inhibition of collagen induced platelet aggregation upto 1 uM preincubated for 5 mins followed by aggregation inducer addition and measured after 5 mins by light transmission aggregometry; assay type: cell-free; conditions: time 10.0 min
[20] = tested on: Platelet; experiment: Antiplatelet aggregation activity in ICR mouse plasma assessed as inhibition of thrombin induced platelet aggregation upto 1 uM preincubated for 5 mins followed by aggregation inducer addition and measured after 5 mins by light transmission aggregometry; assay type: functional, cell-based; conditions: time 10.0 min
[21] = tested on: Plasma; experiment: Ex vivo antiplatelet aggregation activity in po dosed ICR mouse […] assessed as inhibition of PAR4-activated peptide AYPGFK-NH2 induced platelet aggregation measured after 2 hrs by light transmission aggregometry; assay type: functional, organism-based; conditions: dose 1-12 mg/kg
[22] = tested on: Platelet; experiment: Inhibition of platelet aggregation in human platelet rich plasma preincubated for 5 mins followed by aggregation inducer addition and measured after 5 mins by light transmission aggregometry; assay type: functional, cell-based
[23] = tested on: Plasma; experiment: Ex vivo antiplatelet aggregation activity in po dosed ICR mouse […] assessed as inhibition of ADP induced platelet aggregation measured after 2 hrs by light transmission aggregometry; assay type: functional, organism-based; conditions: dose 1-12 mg/kg
[24] = tested on: Plasma; experiment: Anticoagulation activity in ICR mouse platelet poor plasma assessed as elongation of prothrombin time upto 20 uM incubated for 3 mins; assay type: functional, cell-free
[25] = Toxicity in C57BL/6J mouse assessed as prolongation of bleeding time at 3 to 12 mg/kg, po administered via oral gavage and measured after 2 hrs; assay type: organism-based; conditions: in vivo, dose 3-12 mg/kg
[26] = Metabolic stability in human liver microsomes assessed as half life at 1 uM preincubated for 1 hr followed by NADPH addition and measured upto 60 mins by LC-MS/MS analysis; assay type: ADME, Microsome; conditions: time < 120 min
[27] = tested on: Plasma; experiment: Anticoagulation activity in ICR mouse platelet poor plasma assessed as elongation of aPTT upto 20 uM incubated for 3 mins; assay type: functional, cell-free
[28] = tested on: Platelet; experiment: Antiplatelet aggregation activity in ICR mouse plasma assessed as inhibition of thrombin induced platelet aggregation upto 8 uM preincubated for 5 mins followed by aggregation inducer addition and measured after 5 mins by light transmission aggregometry; assay type: functional, cell-based; conditions: time 10.0 min
[29] = tested on: Plasma; experiment: Ex vivo antiplatelet aggregation activity in ICR mouse […] assessed as inhibition of ADP induced platelet aggregation at 6 mg/kg, po measured after 2 hrs by light transmission aggregometry; assay type: functional, organism-based
[30] = tested on: Plasma; experiment: Ex vivo antiplatelet aggregation activity in ICR mouse […] assessed as inhibition of PAR4-activated peptide AYPGFK-NH2 induced platelet aggregation at 6 mg/kg, po measured after 2 hrs by light transmission aggregometry; assay type: functional, organism-based
[31] = target: T3, Proteinase-activated receptor 4 (Mus musculus); experiment: Antagonist activity at PAR4 in ICR mouse plasma assessed as inhibition of PAR4-activated peptide AYPGPK-NH2 induced platelet aggregation at 200 to 1000 nM preincubated for 5 mins followed by aggregation inducer addition and measured after 5 mins by light transmission aggregometry; assay type: cell-free; conditions: filed as antagonist, dose 200-1000 nM, time 10.0 min
[32] = target: T4, Platelet glycoprotein VI (Homo sapiens) (UniProt Q9HCN6); experiment: Antagonist activity at GPVI in human platelet rich plasma assessed as inhibition of collagen induced platelet aggregation at >=4 uM preincubated for 5 mins followed by aggregation inducer addition and measured after 5 mins by light transmission aggregometry; assay type: cell-free; conditions: filed as antagonist, time 10.0 min
T4 sequence (whole entry): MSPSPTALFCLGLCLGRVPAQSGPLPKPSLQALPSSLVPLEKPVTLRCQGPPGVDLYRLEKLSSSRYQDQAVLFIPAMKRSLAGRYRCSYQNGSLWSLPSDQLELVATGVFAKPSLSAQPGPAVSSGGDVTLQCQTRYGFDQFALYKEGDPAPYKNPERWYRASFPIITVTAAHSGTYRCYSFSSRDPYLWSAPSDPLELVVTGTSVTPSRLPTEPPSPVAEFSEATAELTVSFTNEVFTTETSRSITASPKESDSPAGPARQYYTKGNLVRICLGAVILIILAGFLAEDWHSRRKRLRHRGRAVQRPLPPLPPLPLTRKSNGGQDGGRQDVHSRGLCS

Chain of Voltage-gated inwardly rectifying potassium channel KCNH2 (Q12809 whole entry): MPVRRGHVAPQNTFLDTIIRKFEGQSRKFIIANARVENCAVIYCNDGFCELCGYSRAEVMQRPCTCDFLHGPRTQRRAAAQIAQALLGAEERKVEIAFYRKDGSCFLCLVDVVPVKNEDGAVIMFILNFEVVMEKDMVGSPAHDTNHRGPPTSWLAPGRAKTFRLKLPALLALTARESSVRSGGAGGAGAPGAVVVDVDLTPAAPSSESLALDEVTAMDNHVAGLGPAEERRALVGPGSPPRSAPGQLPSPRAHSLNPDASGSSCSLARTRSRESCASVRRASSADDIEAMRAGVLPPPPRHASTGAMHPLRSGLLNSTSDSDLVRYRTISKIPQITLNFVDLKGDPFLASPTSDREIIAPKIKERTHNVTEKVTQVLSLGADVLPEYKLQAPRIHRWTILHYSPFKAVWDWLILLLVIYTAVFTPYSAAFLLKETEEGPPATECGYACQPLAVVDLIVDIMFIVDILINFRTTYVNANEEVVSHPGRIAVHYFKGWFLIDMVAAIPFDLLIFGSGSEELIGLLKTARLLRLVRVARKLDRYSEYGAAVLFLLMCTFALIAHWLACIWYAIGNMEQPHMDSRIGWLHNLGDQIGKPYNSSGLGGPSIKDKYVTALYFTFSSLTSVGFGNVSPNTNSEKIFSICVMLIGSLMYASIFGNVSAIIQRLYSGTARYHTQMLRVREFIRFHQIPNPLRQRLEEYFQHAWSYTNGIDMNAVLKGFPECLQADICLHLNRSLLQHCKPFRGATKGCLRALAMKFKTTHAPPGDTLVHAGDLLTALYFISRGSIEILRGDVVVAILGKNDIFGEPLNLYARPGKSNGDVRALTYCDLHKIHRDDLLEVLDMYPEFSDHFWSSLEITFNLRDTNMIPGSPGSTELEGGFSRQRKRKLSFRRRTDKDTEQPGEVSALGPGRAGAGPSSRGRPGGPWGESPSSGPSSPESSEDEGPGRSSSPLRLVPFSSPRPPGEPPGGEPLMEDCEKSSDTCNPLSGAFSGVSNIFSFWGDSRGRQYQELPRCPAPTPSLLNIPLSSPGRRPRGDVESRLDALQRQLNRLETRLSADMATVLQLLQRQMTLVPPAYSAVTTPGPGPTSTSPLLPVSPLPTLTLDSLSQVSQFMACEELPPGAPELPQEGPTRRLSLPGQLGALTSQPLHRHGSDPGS

SMILES | Activity [2] | inhibition (INH) [3] | half-life [4] | inhibition at 20 µM [5] | Activity [7] | Tmax [8] | clearance [10] | AUC(0-t) at 24 h [11] | bioavailability [12] | Cmax [13] | half-life [14] | AUC(0-t) at 24 h [15] | IC50 [16] | inhibition (INH) [17] | Activity [19] | Activity [20] | Activity [21] | IC50 [22] | Activity [23] | Activity [24] | other results
COc1nn2cc(-c3cc4ccc5c(c4o3)OCC(COc3ccc(F)cc3)O5)nc2s1 (stereo not given) | inactive | >90% | 29.5 h | 87.2% | inactive | 2 h | 3 mL/min/kg | 3040 ng·h/mL | 9.61% | 204 ng/mL | 38.3 h | 5390 ng·h/mL | > 30000 nM | >90% | inactive | inactive | Dose-Dependent Effect | 14.2 nM | Dose-Dependent Effect | inactive | Activity [1]: inactive; Activity [6]: inactive; Activity [9]: Active; Activity [18]: inactive; Activity [25]: Non-Toxic; half-life at 1 µM [26]: 0.708 h; Activity [27]: inactive; Activity [28]: inactive
COc1nn2cc(-c3cc4ccccc4o3)nc2s1 |  |  |  |  |  |  |  |  |  |  |  |  |  |  |  |  |  |  |  |  | Activity [29]: inactive; Activity [30]: inactive
COc1nn2cc(-c3cc4ccc5c(c4o3)OC(COc3ccc(F)cc3)CO5)nc2s1 (stereo not given) | inactive | >90% | 7.32 h | 85.9% | inactive | 1.67 h | 23.8 mL/min/kg | 3460 ng·h/mL | 45.1% | 325 ng/mL | 11.3 h | 1250 ng·h/mL | 21600 nM | >90% | inactive | inactive | Dose-Dependent Effect | 26.1 nM | Dose-Dependent Effect | inactive | Activity [31]: Active; Activity [25]: Non-Toxic; half-life at 1 µM [26]: 1.63 h; Activity [32]: Active; Activity [27]: inactive
